For orientation: IC50 means the concentration at which inhibition is half-maximal.

Molecules are shown by their SMILES.

One assay deals with T1, Human Mer (Homo sapiens, UniProt Q12866).
T1 construct: Human Mer (residues R557-E882 with H628Q and R794A, 0.7 nM); purchased Eurofins Pharma Discovery Services UK Limited (KinaseProfiler service)
T1 sequence (Q12866 557-882 limits assumed): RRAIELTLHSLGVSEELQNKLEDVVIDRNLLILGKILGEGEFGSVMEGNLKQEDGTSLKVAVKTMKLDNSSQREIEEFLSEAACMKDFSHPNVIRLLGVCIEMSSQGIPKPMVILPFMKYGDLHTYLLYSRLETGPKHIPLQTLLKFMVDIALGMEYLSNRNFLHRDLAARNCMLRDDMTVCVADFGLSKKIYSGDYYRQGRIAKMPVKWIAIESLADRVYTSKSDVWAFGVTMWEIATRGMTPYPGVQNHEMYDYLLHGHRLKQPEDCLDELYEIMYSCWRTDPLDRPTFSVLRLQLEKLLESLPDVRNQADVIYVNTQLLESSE
In words: Human Mer kinase assay (33P-phosphoryl transfer radiometric, KinaseProfiler). Conditions: biochemical activity; 10 μM ATP. The procedure: Kinase activity and compound inhibition were investigated using the ^33P-Phosphoryl transfer radiometric kinase assay, performed using the KinaseProfiler™ service of Eurofins Pharma Discovery Services UK Limited. Dose-response experiments were performed using nine compound concentrations in a 96-well microtiter plate. For each assay, all compounds were prepared to a 50× final assay concentration (50 μM) in 100% DMSO, then diluted in a half-log series, with the final top concentration at 1 μM. This working stock of the compound was added to the assay well as the first component in the reaction, followed by the remaining components as detailed in the following assay protocols below. The positive control wells (100% kinase activity) contain all components of the reaction including 2% DMSO (control for solvent effects), except the compound of interest. Blank wells contain all components of the reaction, with the reference inhibitor, staurosporine. This reference compound was used to abolish kinase activity and generated the 0% kinase activity base-line. IC50 values were calculated by nonlinear regression analysis using the sigmoidal dose-response (variable slope) curve fit on XLFit version 5.3 (ID Business Solutions).
Human Mer (residues R557-E882 with H628Q and R794A, 0.7 nM) was incubated with 8 mM MOPS pH 7.0, 0.2 mM EDTA, 30 mM NaCl, 250 μM GGMEDIYFEFMGGKKK, 10 mM magnesium acetate and 10 μM [y-^33P-ATP]. The reaction was initiated by the addition of the Mg/ATP mix. After incubation for 40 minutes at room temperature, the reaction was stopped by the addition of phosphoric acid to a concentration of 0.5%. A reaction aliquot of 10 μL was then spotted onto a P30 filtermat and washed four times for 4 minutes in 0.425% phosphoric acid and once in methanol prior to drying and scintillation counting. Incorporated ^33P was measured using the Wallac Microbeta scintillation counter (Perkin Elmer).

Another assay addresses Met (Homo sapiens, UniProt P08581). In words: Met autophosphorylation ELISA in PC-3 cells. In kind it is cell-based. Further details: endogenous in cells; host or cells: PC-3 prostate cancer cells (ATCC #CRL-1435). The following applies: cellular activity, HGF-stimulated, phospho-Met ELISA, read-out: c-Met IC50. An outline of the steps:
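Phospho-Met (panTyr) sandwich ELISA on lysates of PC-3 cells given 100 ng/mL HGF for 10 min after 1 h compound exposure (8-point curve, 0.3% DMSO) following 3 h serum starvation. Normalised to HGF-stimulated DMSO and reference-inhibitor wells; 4-parameter logistic IC50.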
A general note: An ELISA detects its analyte on a solid surface through an enzyme-linked reagent.

Met, sequence (P08581 25-1390): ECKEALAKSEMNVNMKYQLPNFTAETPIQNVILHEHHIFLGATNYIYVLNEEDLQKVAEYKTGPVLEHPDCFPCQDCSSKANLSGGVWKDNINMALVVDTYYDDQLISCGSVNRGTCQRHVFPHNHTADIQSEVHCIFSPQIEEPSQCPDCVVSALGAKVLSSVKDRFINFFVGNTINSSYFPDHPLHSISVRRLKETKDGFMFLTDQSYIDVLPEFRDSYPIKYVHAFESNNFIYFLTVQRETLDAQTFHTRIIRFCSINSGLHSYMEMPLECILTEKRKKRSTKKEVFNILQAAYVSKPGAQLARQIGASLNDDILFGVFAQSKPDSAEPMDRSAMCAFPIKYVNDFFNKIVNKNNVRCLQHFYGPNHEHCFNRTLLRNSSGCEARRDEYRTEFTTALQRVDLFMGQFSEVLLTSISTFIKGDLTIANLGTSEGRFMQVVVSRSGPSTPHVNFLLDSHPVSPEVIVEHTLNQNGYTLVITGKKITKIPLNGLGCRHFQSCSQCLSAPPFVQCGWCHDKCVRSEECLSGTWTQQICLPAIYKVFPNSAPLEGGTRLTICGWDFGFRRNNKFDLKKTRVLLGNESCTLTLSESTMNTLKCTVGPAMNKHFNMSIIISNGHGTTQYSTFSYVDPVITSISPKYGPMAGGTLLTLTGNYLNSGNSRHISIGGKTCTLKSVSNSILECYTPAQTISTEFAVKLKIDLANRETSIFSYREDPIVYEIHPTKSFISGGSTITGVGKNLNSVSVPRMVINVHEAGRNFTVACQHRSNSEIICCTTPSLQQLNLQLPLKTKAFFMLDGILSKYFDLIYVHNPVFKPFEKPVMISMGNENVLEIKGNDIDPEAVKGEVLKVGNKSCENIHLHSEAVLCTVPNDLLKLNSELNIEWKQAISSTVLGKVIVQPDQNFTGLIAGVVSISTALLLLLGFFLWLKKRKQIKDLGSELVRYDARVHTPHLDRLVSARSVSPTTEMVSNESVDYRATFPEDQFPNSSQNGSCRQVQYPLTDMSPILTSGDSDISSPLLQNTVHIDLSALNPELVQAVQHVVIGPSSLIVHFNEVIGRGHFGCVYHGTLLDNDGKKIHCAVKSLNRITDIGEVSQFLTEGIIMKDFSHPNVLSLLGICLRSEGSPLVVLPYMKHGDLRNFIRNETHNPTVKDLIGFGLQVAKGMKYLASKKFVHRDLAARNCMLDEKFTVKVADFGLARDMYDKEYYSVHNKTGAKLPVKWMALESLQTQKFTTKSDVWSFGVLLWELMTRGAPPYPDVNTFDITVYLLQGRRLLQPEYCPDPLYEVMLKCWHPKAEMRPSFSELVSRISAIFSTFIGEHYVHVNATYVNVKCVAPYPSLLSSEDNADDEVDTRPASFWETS

On to `CN1CCC(n2cc(-c3ccc4c(Oc5ccc(NC(=O)C6(C(=O)Nc7ccc(F)cc7)CC6)cc5)ccnc4c3)cn2)CC1` [Compound 61, 1-N′-(4-Fluorophenyl)-1-N-[4-[7-[1-(1-methylpiperidin-4-yl)pyrazol-4-yl]quinolin-4-yl]oxyphenyl]cyclopropane-1,1-dicarboxamide], for which the results for the IC50 against Human Mer and on Met were at most 10 nM and 10 to 100 nM, respectively. For `Cc1cc2c(Oc3ccc(NC(=O)C4(C(=O)Nc5ccc(F)cc5)CC4)cc3)ccnc2cc1-c1cnn(C)c1` [Compound 78, 1-N′-(4-Fluorophenyl)-1-N-[4-[6-methyl-7-(1-methylpyrazol-4-yl)quinolin-4-yl]oxyphenyl]cyclopropane-1,1-dicarboxamide] the same measures were at most 10 nM and at most 10 nM. For `CNC(=O)c1cc2c(Oc3ccc(NC(=O)C4(C(=O)Nc5ccc(F)cc5)CC4)cc3)ccnc2cc1-c1cnn(C)c1` [Compound 77, 1-N′-(4-Fluorophenyl)-1-N-[4-[6-(methylcarbamoyl)-7-(1-methylpyrazol-4-yl)quinolin-4-yl]oxyphenyl]cyclopropane-1,1-dicarboxamide] the same measures were at most 10 nM and 10 to 100 nM. For `O=C(Nc1ccc(F)cc1)C1(C(=O)Nc2ccc(Oc3ccnc4cc(-c5cnn(C6CCNCC6)c5)ccc34)cc2)CC1` [Compound 60, 1-N′-(4-Fluorophenyl)-1-N-[4-[7-(1-piperidin-4-ylpyrazol-4-yl)quinolin-4-yl]oxyphenyl]cyclopropane-1,1-dicarboxamide] the same measures were at most 10 nM and 10 to 100 nM. Consider `CC(C)(C)n1cc(-c2ccc3c(Oc4ccc(NC(=O)C5(C(=O)Nc6ccc(F)cc6)CC5)cc4)ccnc3c2)cn1` [Compound 23, 1-N-[4-[7-(1-tert-Butylpyrazol-4-yl)quinolin-4-yl]oxyphenyl]-1-N′-(4-fluorophenyl)cyclopropane-1,1-dicarboxamide], for which the concentration for half-maximal inhibition (IC50) is at most 10 nM on Human Mer and 10 to 100 nM on Met. For `COc1cc2c(Oc3ccc(NC(=O)C4(C(=O)Nc5ccc(F)cc5)CC4)cc3)ccnc2cc1-c1cnn(C)c1` [Compound 76, 1-N′-(4-Fluorophenyl)-1-N-[4-[6-methoxy-7-(1-methylpyrazol-4-yl)quinolin-4-yl]oxyphenyl]cyclopropane-1,1-dicarboxamide] the same measures were at most 10 nM and 10 to 100 nM. As to `O=C(Nc1ccc(F)cc1)C1(C(=O)Nc2ccc(Oc3ccnc4cc(-c5ccn[nH]5)ccc34)cc2)CC1` [Compound 68, 1-N′-(4-Fluorophenyl)-1-N-[4-[7-(1H-pyrazol-5-yl)quinolin-4-yl]oxyphenyl]cyclopropane-1,1-dicarboxamide], the half-maximal inhibitory concentration (IC50) at Human Mer was at most 10 nM; on Met it was 10 to 100 nM. Turning to `CC1Cc2cc(F)ccc2N1C(=O)C1(C(=O)Nc2ccc(Oc3ccnc4cc(-c5cnn(C)c5)ccc34)cc2)CC1` (centres unmarked) [Compound 80, 1-(5-Fluoro-2-methyl-2,3-dihydroindole-1-carbonyl)-N-[4-[7-(1-methylpyrazol-4-yl)quinolin-4-yl]oxyphenyl]cyclopropane-1-carboxamide], the figures for the IC50 at Human Mer and on Met were 100 to 1000 nM and 100 to 300 nM, respectively. As for `O=C(Nc1ccc(F)cc1)C1(C(=O)Nc2ccc(Oc3ccnc4cc(-c5cncnc5)ccc34)cc2)CC1` [Compound 27, 1-N′-(4-Fluorophenyl)-1-N-[4-(7-pyrimidin-5-ylquinolin-4-yl)oxyphenyl]cyclopropane-1,1-dicarboxamide], the IC50 against Human Mer was at most 10 nM; on Met, 10 to 100 nM. For `O=C(Nc1ccc(F)cc1)C1(C(=O)Nc2ccc(Oc3ccnc4cc(-c5cnn(C6CC6)c5)ccc34)cc2)CC1` [Compound 22, 1-N-[4-[7-(1-Cyclopropylpyrazol-4-yl)quinolin-4-yl]oxyphenyl]-1-N′-(4-fluorophenyl)cyclopropane-1,1-dicarboxamide] the same measures were at most 10 nM and 10 to 100 nM. For `O=C(Nc1ccc(F)cc1)C1(C(=O)Nc2ccc(Oc3ccnc4cc(-c5cnn(CCN6CCOCC6)c5)ccc34)cc2)CC1` [Compound 19, 1-N′-(4-Fluorophenyl)-1-N-[4-[7-[1-(2-morpholin-4-ylethyl)pyrazol-4-yl]quinolin-4-yl]oxyphenyl]cyclopropane-1,1-dicarboxamide] the same measures were at most 10 nM and 10 to 100 nM. For `C[Si](C)(C)C#Cc1ccc2c(Oc3ccc(NC(=O)C4(C(=O)Nc5ccc(F)cc5)CC4)cc3)ccnc2c1` [Compound 63, 1-N′-(4-Fluorophenyl)-1-N-[4-[7-(2-trimethylsilylethynyl)quinolin-4-yl]oxyphenyl]cyclopropane-1,1-dicarboxamide] the same measures were 100 to 1000 nM and above 300 nM. On to `O=C(Nc1ccc(F)cc1)C1(C(=O)Nc2ccc(Oc3ccnc4cc(-c5cnn(CCO)c5)ccc34)cc2)CC1` [Compound 18, 1-N′-(4-Fluorophenyl)-1-N-[4-[7-[1-(2-hydroxyethyl)pyrazol-4-yl]quinolin-4-yl]oxyphenyl]cyclopropane-1,1-dicarboxamide], for which the IC50 against Human Mer and at Met was at most 10 nM throughout. Turning to `O=C(Nc1ccc(F)cc1)C1(C(=O)Nc2ccc(Oc3ccnc4cc(-c5cccnc5)ccc34)cc2)CC1` [Compound 25, 1-N′-(4-Fluorophenyl)-1-N-[4-(7-pyridin-3-ylquinolin-4-yl)oxyphenyl]cyclopropane-1,1-dicarboxamide], the results for the IC50 at Human Mer and on Met were at most 10 nM and 10 to 100 nM, respectively. Take `Cc1cc2c(Oc3cc(F)c(NC(=O)C4(C(=O)Nc5ccc(F)cc5)CC4)cc3F)ccnc2cc1-c1ncc[nH]1` [Compound 121, 1-N′-[2,5-Difluoro-4-[7-(1H-imidazol-2-yl)-6-methylquinolin-4-yl]oxyphenyl]-1-N-(4-fluorophenyl)cyclopropane-1,1-dicarboxamide]: the IC50 at Met lay in the range of 10 to 100 nM. In the case of `Cc1cc2c(Oc3cc(Cl)c(NC(=O)C4(C(=O)Nc5ccc(F)cc5)CC4)cc3F)ccnc2cc1-c1cnn(C)c1` [Compound 112, 1-N′-[2-Chloro-5-fluoro-4-[6-methyl-7-(1-methylpyrazol-4-yl)quinolin-4-yl]oxyphenyl]-1-N-(4-fluorophenyl)cyclopropane-1,1-dicarboxamide], at Met, the IC50 was in the range of 10 to 100 nM. Still for that read-out and setting: the result for `O=C(Nc1ccc(F)cc1)C1(C(=O)Nc2ccc(Oc3ccnc4cc(-c5ccc(O)nc5)ccc34)cc2)CC1` [Compound 51, 1-N′-(4-Fluorophenyl)-1-N-[4-[7-(6-hydroxypyridin-3-yl)quinolin-4-yl]oxyphenyl]cyclopropane-1,1-dicarboxamide] reads at most 10 nM; that for `O=C(Nc1ccc(F)cc1)C1(C(=O)Nc2ccc(Oc3ccnc4cc(-c5ccnc(F)c5)ccc34)cc2)CC1` [Compound 33, 1-N′-(4-Fluorophenyl)-1-N-[4-[7-(2-fluoropyridin-4-yl)quinolin-4-yl]oxyphenyl]cyclopropane-1,1-dicarboxamide], 10 to 100 nM. On the same count and under the same terms, with `Cc1cc(-c2ccc3c(Oc4ccc(NC(=O)C5(C(=O)Nc6ccc(F)cc6)CC5)cc4)ccnc3c2)ccn1` [Compound 30, 1-N′-(4-Fluorophenyl)-1-N-[4-[7-(2-methylpyridin-4-yl)quinolin-4-yl]oxyphenyl]cyclopropane-1,1-dicarboxamide] the figure was 10 to 100 nM; with `O=C(Nc1ccc(F)cc1)C1(C(=O)Nc2ccc(Oc3ccnc4cc(-c5ccc[n+]([O-])c5)ccc34)cc2)CC1` [Compound 109, 1-N′-(4-Fluorophenyl)-1-N-[4-[7-(1-oxidopyridin-1-ium-3-yl)quinolin-4-yl]oxyphenyl]cyclopropane-1,1-dicarboxamide], 10 to 100 nM. Same read-out and setting: with `O=C(Nc1ccc(F)cc1)C1(C(=O)Nc2ccc(Oc3ccnc4cc(-c5cc6n(n5)CCC6)ccc34)cc2)CC1` [Compound 124, 1-N-[4-[7-(5,6-Dihydro-4H-pyrrolo[1,2-b]pyrazol-2-yl)quinolin-4-yl]oxyphenyl]-1-N′-(4-fluorophenyl)cyclopropane-1,1-dicarboxamide] the figure was 10 to 100 nM.
